Broadly, the pEC50 is the EC50 on a negative log10 scale, so that one unit is a factor of ten. A high value points to a small EC50.

Molecules are shown by their SMILES. pEC50: −log10 of the molar value.

The test has as its target T1, human FXR (Homo sapiens, UniProt Q96RI1).
T1 construct: expressed in transfected cells; host or cells: HEK293 cells stably carrying a 5xGal4-response-element firefly luciferase reporter, transiently transfected with pcDNA3.1-Gal4-FXR
T1 sequence (Q96RI1 262-486 limits assumed): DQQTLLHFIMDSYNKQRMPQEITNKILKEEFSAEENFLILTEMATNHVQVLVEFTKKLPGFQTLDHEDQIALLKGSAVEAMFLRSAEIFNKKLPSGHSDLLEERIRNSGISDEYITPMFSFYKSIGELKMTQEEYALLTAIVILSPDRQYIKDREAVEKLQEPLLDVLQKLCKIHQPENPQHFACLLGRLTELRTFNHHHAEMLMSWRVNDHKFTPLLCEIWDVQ
Kind of test: transient human FXR/Gal4-luciferase reporter assay. It is filed as cell-based. The following applies: Gal4-hFXR transfected HEK293 reporter cells; relative to 8 μM GW-4064. As to the method: A Gal4-hFXR fusion construct reporter system was used as the primary assay to characterize compound activity. A construct including 5 copies of the Gal4 promoter response element upstream of a firefly luciferase reporter cDNA was stably expressed in HEK293 cells. This reporter cell line was maintained in Dulbecco's Modified Eagle's medium (DMEM; Gibco) supplemented with 1% penicillin-streptomycin (P/S) solution, 500 μg/mL Zeocin and 10% charcoal/dextran-treated fetal bovine serum (cs-FBS) at 37° C. in a humidified 5% CO2 atmosphere. Another plasmid was constructed in which the human cytomegalovirus promoter in the pcDNA3.1 vector directs the expression of the cDNA encoding a fusion protein comprised of the DNA binding domain from the Gal4 transcription factor fused to the ligand binding domain from human FXR.
The day prior to transfection, the reporter cells in culture are detached from the plate with trypsin and plated into a T75 flask at a sufficient density to achieve approximately 90% confluence the next morning. The transfection reagents are prepared by separately diluting 25 μg of the pcDNA3.1-Gal4-FXR plasmid into 1.87 mL of Opti-MEM (Thermo-Fisher), and 40 μL of Lipofectamine 2000 (Thermo-Fisher) into 1.87 mL of Opti-MEM, and then adding the diluted DNA solution into the diluted Lipofectamine 2000 solution and incubating at room temperature for 15-20 minutes. The mixture is further diluted with 10 mL of a solution comprised of DMEM, 10% cs-FBS, and 1% P/S immediately prior to transferring to the cells. The maintenance culture media is aspirated from the cells and the final transfection mixture is added before the cells are incubated overnight at 37° C. in a humidified 5% CO2 atmosphere. This protocol can be scaled up, and the transiently transfected cells can be cryopreserved in an assay-ready format.
For compound testing, 100 nL of the compounds (serial dilutions in DMSO) are dispensed with an Echo acoustic dispenser (Labcyte) into the wells of a Corning/Costar clear bottom 384-well white plate. The transfected cells are harvested, counted, and diluted such that 10-25,000 cells in 25 μL are plated into each well of the 384-well compound assay plate. The compound-treated cells are incubated overnight at 37° C. in a humidified 5% CO2 atmosphere.
For orientation: In a reporter assay the amount or activity of a reporter protein is the signal.
For the compound `O=C(O)CNC(=O)c1cc(F)c2nc(N3CCC4(C=C(c5c(-c6ccccc6C(F)(F)F)noc5C5CC5)C4)CC3)sc2c1` [Example 32, (2-(2-(5-Cyclopropyl-3-(2-(trifluoromethyl)phenyl)isoxazol-4-yl)-7-azaspiro[3.5]non-1-en-7-yl)-4-fluorobenzo[d]thiazole-6-carbonyl)glycine], the pEC50 was 5.82. Take `O=C(O)c1cc(F)c2nc(N3CCC4(CC3)CC(O)(c3c(-c5c(Cl)cccc5Cl)noc3C3CC3)C4)sc2c1` [Example 33, 2-(2-(5-Cyclopropyl-3-(2,6-dichlorophenyl)isoxazol-4-yl)-2-hydroxy-7-azaspiro[3.5]nonan-7-yl)-4-fluorobenzo[d]thiazole-6-carboxylic acid]: the pEC50 is 5.32. As for `O=C(O)c1cc(F)c2nc(N3CC4(C=C(c5c(-c6ccccc6C(F)(F)F)noc5C5CC5)C4)C3)sc2c1` [Example 34, 2-(6-(5-cyclopropyl-3-(2-(trifluoromethyl)phenyl)isoxazol-4-yl)-2-azaspiro[3.3]hept-5-en-2-yl)-4-fluorobenzo[d]thiazole-6-carboxylic acid], the figure is 6.40; as for `O=C(O)c1ccc(N2CC3(C=C(c4c(-c5ccccc5C(F)(F)F)noc4C4CC4)C3)C2)nc1` [Example 35, 6-(6-(5-cyclopropyl-3-(2-(trifluoromethyl)phenyl)isoxazol-4-yl)-2-azaspiro[3.3]hept-5-en-2-yl)nicotinic acid], 5.37. With `O=C(O)c1cc(F)c2nc(N3CCC4(CC3)CC(c3c(-c5ccccc5C(F)(F)F)noc3C3CC3)C4)sc2c1` [Example 36, 2-(2-(5-cyclopropyl-3-(2-(trifluoromethyl)phenyl)isoxazol-4-yl)-7-azaspiro[3.5]nonan-7-yl)-4-fluorobenzo[d]thiazole-6-carboxylic acid] the figure was 6.94. `O=C(O)c1ccc(N2CCC3(CC2)CC(c2c(-c4ccccc4C(F)(F)F)noc2C2CC2)C3)nc1` [Example 37] showed a pEC50 of 5.85. `CCOC(=O)c1cc(F)c2nc(N3[C@@H]4CC[C@H]3C[C@@]3(COC(c5c(-c6c(Cl)cccc6Cl)noc5C5CC5)O3)C4)sc2c1` (stereo partly drawn) [Example 40, Ethyl 2-((1R,3S,5S)-2′-(5-cyclopropyl-3-(2,6-dichlorophenyl)isoxazol-4-yl)-8-azaspiro[bicyclo[3.2.1]octane-3,4′-[1,3]dioxolan]-8-yl)-4-fluorobenzo[d]thiazole-6-carboxylate] had a negative logarithm of the EC50 (pEC50) of 5.47.

`O=C(O)c1cc(F)c2nc(N3[C@@H]4CC[C@H]3CC3(COC(c5c(-c6c(Cl)cccc6Cl)noc5C5CC5)O3)C4)sc2c1` (stereo partly drawn) [Example 41, 2-((1R,5S)-2′-(5-cyclopropyl-3-(2,6-dichlorophenyl)isoxazol-4-yl)-8-azaspiro[bicyclo[3.2.1]octane-3,4′-[1,3]dioxolan]-8-yl)-4-fluorobenzo[d]thiazole-6-carboxylic acid] gave a pEC50 of 5.77. This pEC50 lies 0.30 log units higher than the previous one. As to `O=C(O)c1cc(F)c2nc(N3CCC4(CC3)COC(c3c(-c5ccccc5OC(F)(F)F)noc3C3CC3)O4)sc2c1` (centres unmarked) [Example 42, 2-(2-(5-cyclopropyl-3-(2-(trifluoromethoxy)phenyl)isoxazol-4-yl)-1,3-dioxa-8-azaspiro[4.5]decan-8-yl)-4-fluorobenzo[d]thiazole-6-carboxylic acid], the negative logarithm of the EC50 (pEC50) is 6.00. For the compound `O=C(O)c1ccc(N2CCC3(CC2)COC(c2c(-c4ccccc4OC(F)(F)F)noc2C2CC2)O3)nc1` (centres unmarked) [Example 43, 6-(2-(5-Cyclopropyl-3-(2-(trifluoromethoxy)phenyl)isoxazol-4-yl)-1,3-dioxa-8-azaspiro[4.5]decan-8-yl)nicotinic acid], the negative logarithm of the EC50 (pEC50) was 5.28. Compared with the last compound, the pEC50 is 0.72 log units lower.

`O=C(O)c1cccc(N2CCC3(CC2)COC(c2c(-c4ccccc4OC(F)(F)F)noc2C2CC2)O3)n1` (centres unmarked) [Example 44, 6-(2-(5-cyclopropyl-3-(2-(trifluoromethoxy)phenyl)isoxazol-4-yl)-1,3-dioxa-8-azaspiro[4.5]decan-8-yl)picolinic acid] showed a pEC50 of 5.30. `Cc1cc(C(=O)O)cc2sc(N3CCC4(C=C(c5c(-c6c(Cl)cccc6Cl)noc5C5CC5)C4)CC3)nc12` [Example 45, 2-(2-(5-Cyclopropyl-3-(2,6-dichlorophenyl)isoxazol-4-yl)-7-azaspiro[3.5]non-1-en-7-yl)-4-methylbenzo[d]thiazole-6-carboxylic acid]: the pEC50 was 7.96. As for `O=C(O)c1cc(F)c2nc(N3CCC4(C=C(c5c(-c6ncccc6Cl)noc5C5CC5)C4)CC3)sc2c1` [Example 46, 2-(2-(3-(3-Chloropyridin-2-yl)-5-cyclopropylisoxazol-4-yl)-7-azaspiro[3.5]non-1-en-7-yl)-4-fluorobenzo[d]thiazole-6-carboxylic acid], the negative logarithm of the EC50 (pEC50) is 6.70.

As for `O=C(O)c1cc(F)c2nc(N3CCC4(C=C(c5c(-c6c(Cl)cc(F)cc6Cl)noc5C5CC5)C4)CC3)sc2c1` [Example 48, 2-(2-(5-Cyclopropyl-3-(2,6-dichloro-4-fluorophenyl)isoxazol-4-yl)-7-azaspiro[3.5]non-1-en-7-yl)-4-fluorobenzo[d]thiazole-6-carboxylic acid], the pEC50 is 6.94. This pEC50 lies 0.24 log units higher than the previous one. `CC(C)c1onc(-c2c(Cl)cccc2Cl)c1C1=CC2(CCN(c3nc4c(F)cc(C(=O)O)cc4s3)CC2)C1` [Example 49, 2-(2-(3-(2,6-Dichlorophenyl)-5-isopropylisoxazol-4-yl)-7-azaspiro[3.5]non-1-en-7-yl)-4-fluorobenzo[d]thiazole-6-carboxylic acid] gave a pEC50 of 7.24. With `O=C(O)c1cc(OC(F)(F)F)c2nc(N3CCC4(C=C(c5c(-c6c(Cl)cncc6Cl)noc5C5CC5)C4)CC3)sc2c1` [Example 50, 2-(2-(5-Cyclopropyl-3-(3,5-dichloropyridin-4-yl)isoxazol-4-yl)-7-azaspiro[3.5]non-1-en-7-yl)-4-(trifluoromethoxy)benzo[d]thiazole-6-carboxylic acid] the figure was 7.96; with `COc1cc2nc(N3CCC4(C=C(c5c(-c6c(Cl)cncc6Cl)noc5C5CC5)C4)CC3)sc2cc1C(=O)O` [Example 51, 2-(2-(5-Cyclopropyl-3-(3,5-dichloropyridin-4-yl)isoxazol-4-yl)-7-azaspiro[3.5]non-1-en-7-yl)-5-methoxybenzo[d]thiazole-6-carboxylic acid], 7.14. Regarding `CC(C)c1onc(-c2c(Cl)cncc2Cl)c1C1=CC2(CCN(c3nc4c(F)cc(C(=O)O)cc4s3)CC2)C1` [Example 52, 2-(2-(3-(3,5-Dichloropyridin-4-yl)-5-isopropylisoxazol-4-yl)-7-azaspiro[3.5]non-1-en-7-yl)-4-fluorobenzo[d]thiazole-6-carboxylic acid], the pEC50 is 7.24. With `O=C(O)c1cc2ccc(N3CCC4(C=C(c5c(-c6c(Cl)cccc6Cl)noc5C5CC5)C4)CC3)cc2nn1` [Example 53, 7-(2-(5-Cyclopropyl-3-(2,6-dichlorophenyl)isoxazol-4-yl)-7-azaspiro[3.5]non-1-en-7-yl)cinnoline-3-carboxylic acid] the figure was 7.34; with `O=C(O)c1cc2ccc(N3CCC4(C=C(c5c(-c6ccccc6C(F)(F)F)noc5C5CC5)C4)CC3)cc2nn1` [Example 54, 7-(2-(5-Cyclopropyl-3-(2-(trifluoromethyl)phenyl)isoxazol-4-yl)-7-azaspiro[3.5]non-1-en-7-yl)cinnoline-3-carboxylic acid], 6.75; with `O=C(O)c1cc2ccc(N3CCC4(C=C(c5c(-c6c(Cl)cncc6Cl)noc5C5CC5)C4)CC3)cc2nn1` [Example 55, 7-(2-(5-Cyclopropyl-3-(3,5-dichloropyridin-4-yl)isoxazol-4-yl)-7-azaspiro[3.5]non-1-en-7-yl)cinnoline-3-carboxylic acid], 6.72. Turning to `O=C(O)c1cc2ccc(N3CCC4(C=C(c5c(-c6c(F)cccc6Cl)noc5C5CC5)C4)CC3)cc2nn1` [Example 56, 7-(2-(3-(2-Chloro-6-fluorophenyl)-5-cyclopropylisoxazol-4-yl)-7-azaspiro[3.5]non-1-en-7-yl)cinnoline-3-carboxylic acid], the pEC50 is 6.71. As for `Cc1cccc(Cl)c1-c1noc(C2CC2)c1C1=CC2(CCN(c3ccc4cc(C(=O)O)nnc4c3)CC2)C1` [Example 57, 7-(2-(3-(2-Chloro-6-methylphenyl)-5-cyclopropylisoxazol-4-yl)-7-azaspiro[3.5]non-1-en-7-yl)cinnoline-3-carboxylic acid], the figure is 6.64.
